The record followed here is paper PMC7366380, “Discovery of a Potent and Selective Covalent Inhibitor and Activity-Based Probe for the Deubiquitylating Enzyme UCHL1, with Antifibrotic Activity” (Journal of the American Chemical Society, 2020).

The structures appear in SMILES notation.

The test system of assay [1] is primary human bronchial fibroblasts from IPF patients (TGF-β1-triggered αSMA). Nature of the assay: Fibroblast-to-myofibroblast transition (FMT) assay, αSMA by high content analysis. The conditions noted are these: for αSMA inhibition / transdifferentiation (in words): IPF donor fibroblasts, TGF-β1, 3 days, high content imaging; for IC50: Homo sapiens, Fibroblast, 72 h, read-out: αSMA inhibition IC50 (95% CI).

For the next assay, the target named is T1, USP22 (Homo sapiens, UniProt Q9UPT9).
T1 sequence (Q9UPT9 1-525): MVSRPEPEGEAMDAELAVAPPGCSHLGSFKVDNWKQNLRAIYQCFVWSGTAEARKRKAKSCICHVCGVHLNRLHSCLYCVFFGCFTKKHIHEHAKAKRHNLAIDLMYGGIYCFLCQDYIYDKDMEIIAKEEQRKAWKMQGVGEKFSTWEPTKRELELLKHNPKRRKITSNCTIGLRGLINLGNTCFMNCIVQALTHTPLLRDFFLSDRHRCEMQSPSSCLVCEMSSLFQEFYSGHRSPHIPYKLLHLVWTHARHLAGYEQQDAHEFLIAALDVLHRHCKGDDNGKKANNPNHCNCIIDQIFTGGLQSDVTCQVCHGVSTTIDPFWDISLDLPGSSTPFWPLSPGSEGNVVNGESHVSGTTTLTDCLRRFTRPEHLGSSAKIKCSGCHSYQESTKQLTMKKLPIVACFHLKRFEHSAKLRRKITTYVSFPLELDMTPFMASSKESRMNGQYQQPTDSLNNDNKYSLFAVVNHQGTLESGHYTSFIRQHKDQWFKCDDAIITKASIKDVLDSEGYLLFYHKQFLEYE
T1 sequence (Q14CW9 1-347 partner): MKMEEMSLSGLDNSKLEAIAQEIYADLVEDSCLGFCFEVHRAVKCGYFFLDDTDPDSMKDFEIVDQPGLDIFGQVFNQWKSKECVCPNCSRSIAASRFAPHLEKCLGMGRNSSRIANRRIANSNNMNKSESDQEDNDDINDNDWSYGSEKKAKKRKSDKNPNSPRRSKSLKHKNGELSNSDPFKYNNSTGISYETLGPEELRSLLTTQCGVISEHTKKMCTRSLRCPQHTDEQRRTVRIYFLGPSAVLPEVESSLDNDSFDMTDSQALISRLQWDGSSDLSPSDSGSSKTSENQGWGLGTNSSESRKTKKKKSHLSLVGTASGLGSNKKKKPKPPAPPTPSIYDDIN
T1 sequence (Q9NPA8 1-101 partner): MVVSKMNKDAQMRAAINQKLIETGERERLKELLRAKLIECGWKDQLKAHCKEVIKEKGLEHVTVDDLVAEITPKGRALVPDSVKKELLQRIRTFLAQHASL
Nature of the assay: Biochemical DUB selectivity profiling assay: USP22. The following applies: Ub-Rho110 400 nM, buffer B; read-out: Biochemical IC50 range, USP22. As for the experimental part: (§1) DUB Assay Substrate Substrate
(§2) Buffer Concentration (nM) […]
(§3) Sepharose® 4B resin (GE Healthcare).
(§4) 10 kDa molecular weight cut-off (MWCO)).
(§5) Fractions containing protein
(§6) Protein concentration was […]
(§7) reaction volume of 21 μL. […]
(§8) compound (final concentration 5 nM).
(§9) IC50 values were determined
(§10) Biochemical DUB selectivity profiling assays […]
(§11) in 40 µL total reaction volume.

The target in a further assay is T2, UCHL3 (Homo sapiens, UniProt P15374).
T2 sequence (P15374 1-230): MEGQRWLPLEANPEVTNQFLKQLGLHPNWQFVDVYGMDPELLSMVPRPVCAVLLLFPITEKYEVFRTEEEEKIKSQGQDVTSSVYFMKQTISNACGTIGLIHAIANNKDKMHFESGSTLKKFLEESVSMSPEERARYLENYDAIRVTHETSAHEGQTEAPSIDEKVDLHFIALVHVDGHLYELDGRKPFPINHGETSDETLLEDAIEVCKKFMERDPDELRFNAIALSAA
Nature of the assay: Biochemical DUB selectivity profiling assay: UCHL3. The conditions noted are these: Ub-Lys-TAMRA 50 nM, buffer A; read-out: Biochemical IC50 range, UCHL3. As to the method: as §1, §2, §3, §4, §5, §6, §7, §8, §9, §10, §11

For the next assay, the target named is USP16 (Homo sapiens, UniProt Q9Y5T5). Nature of the assay: biochemical.
The next assay addresses T3, USP4 (Homo sapiens, UniProt Q13107).
T3 sequence (Q13107 1-963): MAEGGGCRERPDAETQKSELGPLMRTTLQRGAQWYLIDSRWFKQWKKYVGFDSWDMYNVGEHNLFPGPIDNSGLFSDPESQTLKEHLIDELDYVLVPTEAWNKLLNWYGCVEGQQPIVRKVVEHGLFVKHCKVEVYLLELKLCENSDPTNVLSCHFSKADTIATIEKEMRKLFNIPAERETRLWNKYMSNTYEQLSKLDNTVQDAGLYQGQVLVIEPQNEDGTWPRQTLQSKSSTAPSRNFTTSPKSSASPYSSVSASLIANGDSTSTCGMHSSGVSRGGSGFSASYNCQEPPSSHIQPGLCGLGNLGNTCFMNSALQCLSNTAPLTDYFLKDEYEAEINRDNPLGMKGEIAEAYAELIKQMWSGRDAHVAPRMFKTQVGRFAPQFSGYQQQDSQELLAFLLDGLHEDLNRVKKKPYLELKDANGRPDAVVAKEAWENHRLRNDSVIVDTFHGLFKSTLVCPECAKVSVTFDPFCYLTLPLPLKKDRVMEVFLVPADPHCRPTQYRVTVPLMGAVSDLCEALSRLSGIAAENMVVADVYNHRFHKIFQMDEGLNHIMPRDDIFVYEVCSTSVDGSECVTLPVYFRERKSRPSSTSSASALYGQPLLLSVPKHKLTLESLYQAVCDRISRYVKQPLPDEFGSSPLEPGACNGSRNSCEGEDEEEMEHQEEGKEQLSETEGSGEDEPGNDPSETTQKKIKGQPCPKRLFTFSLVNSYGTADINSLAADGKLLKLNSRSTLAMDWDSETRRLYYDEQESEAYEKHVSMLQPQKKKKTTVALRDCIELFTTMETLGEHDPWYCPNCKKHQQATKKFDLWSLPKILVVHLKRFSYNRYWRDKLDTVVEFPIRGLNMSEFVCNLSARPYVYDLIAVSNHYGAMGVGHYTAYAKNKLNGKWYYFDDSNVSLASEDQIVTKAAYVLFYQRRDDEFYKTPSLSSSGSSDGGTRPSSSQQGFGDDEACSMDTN
Nature of the assay: Biochemical DUB selectivity profiling assay: USP4. The conditions noted are these: Ub-Lys-TAMRA 50 nM, buffer A; read-out: Biochemical IC50 range, USP4. As to the method:
as §1, §2, §3, §4, §5, §6, §7, §8, §9, §10, §11

For another assay, the target named is USP10 (Homo sapiens, UniProt Q14694). Nature of the assay: biochemical.
Sequence of USP10 (Q14694 whole entry): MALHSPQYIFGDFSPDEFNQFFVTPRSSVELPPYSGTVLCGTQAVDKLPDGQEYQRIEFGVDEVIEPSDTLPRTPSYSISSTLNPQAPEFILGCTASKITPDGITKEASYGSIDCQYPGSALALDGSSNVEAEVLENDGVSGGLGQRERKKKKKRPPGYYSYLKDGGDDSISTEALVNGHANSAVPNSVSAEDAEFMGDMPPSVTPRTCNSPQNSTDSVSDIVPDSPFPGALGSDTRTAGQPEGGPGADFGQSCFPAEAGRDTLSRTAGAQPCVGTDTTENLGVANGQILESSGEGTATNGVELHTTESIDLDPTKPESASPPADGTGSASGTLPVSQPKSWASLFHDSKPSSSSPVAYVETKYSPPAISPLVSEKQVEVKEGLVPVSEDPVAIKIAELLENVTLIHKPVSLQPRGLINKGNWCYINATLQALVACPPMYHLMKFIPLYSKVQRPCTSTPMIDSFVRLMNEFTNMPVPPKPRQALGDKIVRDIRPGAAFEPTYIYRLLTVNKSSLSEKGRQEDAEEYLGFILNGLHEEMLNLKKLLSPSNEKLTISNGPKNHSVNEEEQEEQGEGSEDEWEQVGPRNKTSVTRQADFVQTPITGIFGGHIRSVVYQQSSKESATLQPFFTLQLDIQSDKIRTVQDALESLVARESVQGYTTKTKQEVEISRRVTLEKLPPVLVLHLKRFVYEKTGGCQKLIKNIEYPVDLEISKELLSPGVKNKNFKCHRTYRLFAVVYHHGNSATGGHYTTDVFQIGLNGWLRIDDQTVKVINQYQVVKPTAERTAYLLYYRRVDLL

Sequence of USP16 (Q9Y5T5 whole entry, species assumed): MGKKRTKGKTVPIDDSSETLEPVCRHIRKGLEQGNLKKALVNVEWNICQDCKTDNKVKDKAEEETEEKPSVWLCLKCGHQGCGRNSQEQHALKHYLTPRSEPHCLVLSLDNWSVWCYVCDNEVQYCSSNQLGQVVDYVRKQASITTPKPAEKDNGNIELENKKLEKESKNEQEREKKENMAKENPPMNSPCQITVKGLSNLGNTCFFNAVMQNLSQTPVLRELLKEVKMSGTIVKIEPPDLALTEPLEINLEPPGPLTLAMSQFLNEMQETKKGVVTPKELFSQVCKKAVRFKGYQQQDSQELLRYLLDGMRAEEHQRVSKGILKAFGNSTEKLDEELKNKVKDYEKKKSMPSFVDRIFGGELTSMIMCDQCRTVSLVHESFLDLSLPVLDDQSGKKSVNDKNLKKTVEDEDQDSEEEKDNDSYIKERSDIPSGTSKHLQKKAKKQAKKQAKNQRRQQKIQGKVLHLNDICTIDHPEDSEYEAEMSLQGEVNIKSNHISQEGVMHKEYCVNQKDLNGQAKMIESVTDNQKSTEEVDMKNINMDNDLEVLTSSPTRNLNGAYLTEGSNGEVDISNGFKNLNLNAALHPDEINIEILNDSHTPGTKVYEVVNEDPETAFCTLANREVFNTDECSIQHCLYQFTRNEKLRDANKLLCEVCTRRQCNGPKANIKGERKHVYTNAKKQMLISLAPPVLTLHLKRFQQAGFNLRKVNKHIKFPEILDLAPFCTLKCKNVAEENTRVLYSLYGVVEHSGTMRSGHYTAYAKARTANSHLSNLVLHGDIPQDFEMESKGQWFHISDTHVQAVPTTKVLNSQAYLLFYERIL

A word on the IC50: it is the concentration needed to halve the response being measured. For the compound `N#CN1CCC[C@H]1C(=O)N1CCc2c(-c3c[nH]c4ncccc34)cccc21` [Compound 1], the “αSMA inhibition / transdifferentiation (in words)” value in assay [1] was “inhibit transdifferentiation”. In addition, the 50% inhibitory concentration (IC50) is more than 10 µM at USP22; 1 to 10 µM on UCHL3; more than 10 µM on USP16; more than 10 µM on USP4; more than 10 µM against USP10.
Regarding `C#Cc1cnc2[nH]cc(-c3cccc4c3CCN4C(=O)[C@@H]3CCCN3C#N)c2c1` [Compound 2], the “αSMA inhibition / transdifferentiation (in words)” value in assay [1] is recorded as “inhibit transdifferentiation”. The IC50 is more than 10 µM on USP22, 1 to 10 µM on UCHL3 and more than 10 µM on USP4.
For the compound `N#CN1CCC[C@@H]1C(=O)N1CCc2c(-c3c[nH]c4ncccc34)cccc21` [Compound 3], the IC50 was 2000 nM in assay [1]; more than 10 µM on USP22; more than 10 µM on UCHL3; more than 10 µM at USP4; more than 10 µM on USP10. Also, the “αSMA inhibition / transdifferentiation (in words)” value in assay [1] was “not and minimal αSMA inhibition”.
Turning to `CC(=O)O/N=C1\C(=O)N(Cc2cc(Cl)ccc2Cl)c2ccc(Cl)cc21` [LDN-57444, reference compound], the IC50 in assay [1] was 3700 nM; on USP22, more than 10 µM; on UCHL3, more than 10 µM; against USP16 it was more than 10 µM; on USP4, more than 10 µM; at USP10 it was more than 10 µM. The “αSMA inhibition / transdifferentiation (in words)” value in assay [1] is “not and weak αSMA inhibition”.
